Measured values taken from patent publication EP4772500A1, “NOVEL ISOXAZOLE COMPOUND AS TM4SF5-SPECIFIC INHIBITOR AND USE THEREOF” (Seoul National University R&DB Foundation, priority 2023, dated 2025).

Tested on: SNU761-EV cells
Experiment: Western blotting of SLAMF7 expression, control SNU761 cells
Format: cell-based, human
Conditions: SNU761-EV (FIG. 13d)
Method: Cell extracts were obtained from cells grown to a density of 70-80% without any treatment, or from cells treated with vehicle DMSO or drugs at the given concentrations for 24 hours. For the extract of hepatocytes or liver cancer cells, a lysis buffer (150 mM NaCl, 1% NP-40, 50 mM Tris-HCl, 0.25% sodium deoxycholate, pH 7.4) including a protease inhibitor cocktail (GenDEPOT) was used. In addition, after washing animal liver tissue twice with PBS, SDS, Na3VO4, and protease inhibitor cocktails (GenDEPOT) were added to a lysis buffer [50 mM Tris-HCl, pH 7.4, 1% NP40, 0.25% sodium deoxycholate, 150 mM NaCl, 1 mM EDTA (based on 500 ml)], followed by treatment at 4°C for 15 minutes. […] After quantification using BCA reagent (Thermo Scientific), a 4 × sample buffer [100% glycerol 4 ml, Tris-HCl, pH 6.8, 2.4 ml, SDS 0.8 g, Bromophenol blue 4 mg, betamercaptoethanol 0.4 ml, H2O 3.1 ml (based on 10 ml)] was added, followed by boiling at 100°C for 5 minutes. […]
After 24 hours, vehicle DMSO, drug ST-1-025, or ST-5-002 was treated at the given concentrations. […] (f) After treating NK92-EV or NK92-TM4SF5 cells with DMSO or drugs ST-2-001 (1 nM), ST-3-005 (10 nM or 1 µM), ST-5-001, or ST-5-002 (100 nM or 1 µM) for 24 hours, the expression of SLAMF7 expressed on the cell surface was analyzed through immunostaining using flow cytometry. […]

## Cc1ccc(C(=O)Nc2ccc(-c3cc(-c4ccc(O)cc4)no3)cc2)cc1 [ST-5-002, N-(4-(3-(4-hydroxyphenyl)isoxazole-5-yl)phenyl)-4-methylbenzamide]
  expression of SLAMF7: lowered
